Structures can show the parent of a compound that is named as a salt.
What was measured:
[1] = target: T1, human recombinant ENPP1 enzymes (Homo sapiens, UniProt P22413); assay: ENPP1 Enzyme Assay with cGAMP Substrate (AMP-Glo); type: biochemical; conditions: human recombinant ENPP1 3 ng/reaction, cGAMP 5 μM, 37° C. 90 minutes, average of two or more tests; read-out: Enzymatic activity IC50
T1 construct: purchased R & D systems
T1 sequence (P22413 1-925): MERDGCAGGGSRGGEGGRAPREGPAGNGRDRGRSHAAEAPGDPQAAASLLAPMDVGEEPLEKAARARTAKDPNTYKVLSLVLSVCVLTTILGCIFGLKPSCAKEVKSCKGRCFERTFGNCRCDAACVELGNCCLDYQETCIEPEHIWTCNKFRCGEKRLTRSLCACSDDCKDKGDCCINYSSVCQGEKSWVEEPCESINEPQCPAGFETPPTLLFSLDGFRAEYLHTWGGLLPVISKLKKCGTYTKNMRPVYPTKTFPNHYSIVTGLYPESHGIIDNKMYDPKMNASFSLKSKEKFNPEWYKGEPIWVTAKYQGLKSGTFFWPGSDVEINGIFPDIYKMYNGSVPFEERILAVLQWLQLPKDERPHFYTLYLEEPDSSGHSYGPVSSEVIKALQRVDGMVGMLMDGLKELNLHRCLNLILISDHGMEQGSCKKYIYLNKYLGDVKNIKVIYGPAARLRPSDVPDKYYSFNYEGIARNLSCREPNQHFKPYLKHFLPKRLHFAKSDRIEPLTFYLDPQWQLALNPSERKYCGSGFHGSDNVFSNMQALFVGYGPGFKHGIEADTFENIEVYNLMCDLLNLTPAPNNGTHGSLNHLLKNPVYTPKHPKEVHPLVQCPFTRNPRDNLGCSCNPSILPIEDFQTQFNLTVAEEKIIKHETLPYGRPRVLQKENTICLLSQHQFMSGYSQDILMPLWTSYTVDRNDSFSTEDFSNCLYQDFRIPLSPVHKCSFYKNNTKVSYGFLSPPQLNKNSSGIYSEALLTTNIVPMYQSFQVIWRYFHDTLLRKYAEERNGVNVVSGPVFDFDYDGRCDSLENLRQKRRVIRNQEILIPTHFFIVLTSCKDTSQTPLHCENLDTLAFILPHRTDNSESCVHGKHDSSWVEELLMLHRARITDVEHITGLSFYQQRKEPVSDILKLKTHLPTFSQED
Method in brief: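 Human recombinant ENPP1 (3 ng/reaction) preincubated 5–10 min at RT with inhibitor, then reacted with 5 µM cGAMP for 90 min at 37 °C in 50 mM Tris pH 8.5, 250 mM NaCl, 0.5 mM CaCl2, 1 µM ZnCl2, 1% DMSO. AMP produced read by AMP-Glo luminescence; IC50 from 3-parameter fit, averaged over ≥2 runs.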

[2] = tested on: interferon regulatory factor 3 (IRF3) in HCT116-Dual cells; assay: HCT116-Dual Cell Luciferase Assay (ISG54 promoter, IRF3 activity); type: cell-based; conditions: ENPP1 inhibitor usually 10 μM plus cGAMP 10 μM, 48 hours, Lucia luciferase
Text: HCT116-Dual™ cells express genes encoding luciferase secreted under the control of the interferon-stimulated gene 54 (ISG54) promoter along with five interferon-stimulated response elements. The HCT116-Dual™ cell line was used to measure and monitor the activity of interferon regulatory factor 3 (IRF3), which induces production of type I interferon and relates to downstream signaling, and Lucia secreted in the culture medium was used to generate luminescence in a luciferase reaction.
HCT116-Dual™ cells were cultured at 2×10^4 cells/well (93.4 μL) in a 96-well plate for one day in a DMEM medium containing 10% FBS and 25 mM HEPES (pH 7.2-7.5). The cells were treated with 3.3 μL of ENPP1 inhibitor (usually 10 μM) and then 3.3 μL of cGAMP (10 μM) to set the final volume to 100 μL (The final fraction of DMSO was 0.1%). The cells treated with ENPP1 inhibitor and cGAMP were cultured at 37° C. for 48 hours and 50 μL of Quanti-Luc reaction solution was added to 20 μL of cell culture medium to measure luciferase activity. The increase in interferon regulatory factor 3 (IRF3) by the compound compared to cGAMP was determined as fold.

SMILES | IC50 [1] [µM] | Cellular activity: increase in IRF3 by the compound compared to cGAMP, as fold [2]
CCNCc1ccc(-c2ccnc3[nH]c(=O)ccc23)cc1F.Cl [Example 24, 5-(4-((ethylamino)methyl)-3-fluorophenyl)-1,8-naphthyridin-2(1H)-one hydrochloride] | > 10 | B (1< Fold <2)
CNCc1ccc(-c2ccnc3[nH]c(=O)ccc23)cc1F.Cl [Example 23, 5-(3-fluoro-4-((methylamino)methyl)phenyl)-1,8-naphthyridin-2(1H)-one hydrochloride] | 1 to 10 | B (1< Fold <2)
CC(NS(N)(=O)=O)c1ccc(-c2ccnc3[nH]c(=O)ccc23)cc1.Cl (stereo not shown) [Example 45, N-(1-(4-(7-oxo-7,8-dihydro-1,8-naphthyridin-4-yl)phenyl)ethyl)sulfamide hydrochloride] | < 1 | B (1< Fold <2)
C[C@@H](N)c1ccc(-c2ccnc3[nH]c(=O)ccc23)cc1.Cl [Example 15, (R)-5-(4-(1-aminoethyl)phenyl)-1,8-naphthyridin-2(1H)-one hydrochloride] | < 1 | B (1< Fold <2)
CN(Cc1ccc(-c2ccnc3[nH]c(=O)ccc23)c(F)c1)S(N)(=O)=O.Cl [Example 55, N-(3-fluoro-4-(7-oxo-7,8-dihydro-1,8-naphthyridin-4-yl)benzyl)-N-methylsulfamide hydrochloride] | < 1 | B (1< Fold <2)

Second part, led by results:

IC50 [1] [µM] | SMILES | Cellular activity: increase in IRF3 by the compound compared to cGAMP, as fold [2]
< 1 | Cl.NCc1ccc(-c2ccnc3[nH]c(=O)ccc23)c(F)c1F [Example 13, 5-(4-(aminomethyl)-2,3-difluorophenyl)-1,8-naphthyridin-2(1H)-one hydrochloride] | A (>2)
< 1 | Cl.NCc1ccc(-c2ccnc3[nH]c(=O)ccc23)c(F)c1 [Example 11, 5-(4-(aminomethyl)-2-fluorophenyl)-1,8-naphthyridin-2(1H)-one hydrochloride] | A (>2)
< 1 | NS(=O)(=O)NCc1cc(-c2ccnc3[nH]c(=O)ccc23)ccc1F [Example 38, N-(2-fluoro-5-(7-oxo-7,8-dihydro-1,8-naphthyridin-4-yl)benzyl)sulfamide hydrochloride] | B (1< Fold <2)
< 1 | NS(=O)(=O)Nc1cccc(-c2ccnc3[nH]c(=O)ccc23)c1 [Example 35, N-(3-(7-oxo-7,8-dihydro-1,8-naphthyridin-4-yl)phenyl)sulfamide hydrochloride] | B (1< Fold <2)
< 1 | NS(=O)(=O)N1CCc2ccc(Nc3ccnc4[nH]c(=O)ccc34)cc2C1 [Example 102, 7-((7-oxo-7,8-dihydro-1,8-naphthyridin-4-yl)amino)-3,4-dihydroisoquinolin-2(1H)-yl)sulfamide dihydrochloride] | A (>2)
< 1 | Cl.NS(=O)(=O)N(Cc1ccc(-c2ccnc3[nH]c(=O)ccc23)c(F)c1)C1CC1 [Example 58, N-cyclopropyl-N-(3-fluoro-4-(7-oxo-7,8-dihydro-1,8-naphthyridin-4-yl)benzyl)sulfamide hydrochloride] | B (1< Fold <2)

Source: patent US20240140944A1, “NOVEL NAPHTHYRIDINONE DERIVATIVE HAVING INHIBITORY ACTIVITY AGAINST ECTONUCLEOTIDE PYROPHOSPHATASE-PHOSPHODIESTERASE AND USE THEREOF” (TXINNO BIOSCIENCE INC., priority 2020, published 2024)
